In brackets after ≈: the same amount, converted by molar mass. Activity calls are given as the source filed them. No cut-off for these calls is given here.
Columns and labels:
[1] = Inhibition beta lactamase PDC-1 in Pseudomonas aeruginosa PAO1 using nitrocefin as substrate measured by 96 well microtitre plate
[2] = test system: Pseudomonas aeruginosa PAO1; experiment: Inhibition of beta-lactamase activity in Pseudomonas aeruginosa PAO1 deltadacBdeltapbpGdeltadacC assessed as MIC for cefpodoxime antibacterial activity at 16 mg/L by broth microdilution method
[3] = test system: Pseudomonas aeruginosa PAO1; experiment: Inhibition beta lactamase PDC-1 in Pseudomonas aeruginosa PAO1 assessed as ratio of kinact/K1 using nitrocefin as substrate measured by 96 well microtitre plate
[4] = test system: Pseudomonas aeruginosa PAO1; experiment: Inhibition of beta-lactamase activity in Pseudomonas aeruginosa PAO1 13/09-018 (ST-175) assessed as MIC for cefpodoxime antibacterial activity at 16 mg/L by broth microdilution method
[5] = test system: Pseudomonas aeruginosa PAO1; experiment: Inhibition of beta-lactamase activity in Pseudomonas aeruginosa PAO1 deltaC+pUCP-(PDC-5) assessed as MIC for cefpodoxime antibacterial activity at 4 mg/L by broth microdilution method
[6] = test system: Pseudomonas aeruginosa PAO1; experiment: Inhibition of beta-lactamase activity in Pseudomonas aeruginosa PAO1 deltaDdeltsDh2deltaDh3 assessed as MIC for cefpodoxime antibacterial activity at 16 mg/L by broth microdilution method
[7] = test system: Pseudomonas aeruginosa PAO1; experiment: Inhibition of beta-lactamase activity in Pseudomonas aeruginosa PAO1 17/14-017 (ST-235) assessed as MIC for cefpodoxime antibacterial activity at 4 mg/L by broth microdilution method
[8] = test system: Pseudomonas aeruginosa PAO1; experiment: Inhibition of beta-lactamase activity in Pseudomonas aeruginosa PAO1 deltadacB assessed as MIC for cefpodoxime antibacterial activity at 4 mg/L by broth microdilution method
[9] = test system: Pseudomonas aeruginosa PAO1; experiment: Inhibition beta lactamase PDC-1 in Pseudomonas aeruginosa PAO1 assessed half life of nitrocefin substrate measured by 96 well microtitre plate assay
[10] = test system: Pseudomonas aeruginosa PAO1; experiment: Inhibition of beta-lactamase activity in Pseudomonas aeruginosa PAO1 deltadacB assessed as MIC for cefpodoxime antibacterial activity at 16 mg/L by broth microdilution method
[11] = test system: Pseudomonas aeruginosa PAO1; experiment: Inhibition of beta-lactamase activity in Pseudomonas aeruginosa PAO1 deltadacBdeltadacC assessed as MIC for cefpodoxime antibacterial activity at 16 mg/L by broth microdilution method
[12] = test system: Pseudomonas aeruginosa PAO1; experiment: Inhibition of beta-lactamase activity in Pseudomonas aeruginosa PAO1 deltaC assessed as MIC for cefpodoxime antibacterial activity at 4 mg/L by broth microdilution method
[13] = test system: Pseudomonas aeruginosa PAO1; experiment: Inhibition of beta-lactamase activity in Pseudomonas aeruginosa PAO1 deltadacBdeltadacC assessed as MIC for cefpodoxime antibacterial activity at 4 mg/L by broth microdilution method
[14] = test system: Pseudomonas aeruginosa PAO1; experiment: Inhibition of beta-lactamase activity in Pseudomonas aeruginosa PAO1 deltaampD assessed as MIC for cefpodoxime antibacterial activity at 16 mg/L by broth microdilution method
[15] = test system: Pseudomonas aeruginosa PAO1; experiment: Inhibition of beta lactamase PDC-1 in Pseudomonas aeruginosa PAO1 assessed as reduction in enzyme activity using nitrocefin as chromogenic substrate preincubated for 10 min using 96 well microtiter plate
[16] = test system: Pseudomonas aeruginosa PAO1; experiment: Inhibition of beta-lactamase activity in Pseudomonas aeruginosa PAO1 53/22-113 (ST-244) assessed as MIC for cefpodoxime antibacterial activity at 16 mg/L by broth microdilution method
[17] = test system: Pseudomonas aeruginosa PAO1; experiment: Inhibition beta lactamase PDC-1 in Pseudomonas aeruginosa PAO1 assessed as inactivation efficiency by measuring acylation rate (k2/K) using nitrocefin as substrate measured by 96 well microtitre plate
[18] = test system: Pseudomonas aeruginosa PAO1; experiment: Inhibition of beta-lactamase activity in Pseudomonas aeruginosa PAO1 PAHUAC-14 (ST-966) assessed as MIC for cefpodoxime antibacterial activity at 16 mg/L by broth microdilution method
[19] = test system: Pseudomonas aeruginosa PAO1; experiment: Inhibition of beta-lactamase activity in Pseudomonas aeruginosa PAO1 23/14-053 (ST-309) assessed as MIC for cefpodoxime antibacterial activity at 4 mg/L by broth microdilution method
[20] = test system: Pseudomonas aeruginosa PAO1; experiment: Inhibition of beta-lactamase activity in Pseudomonas aeruginosa PAO1 deltadacBdeltaampD assessed as MIC for cefpodoxime antibacterial activity at 16 mg/L by broth microdilution method
[21] = test system: Pseudomonas aeruginosa PAO1; experiment: Inhibition of beta-lactamase activity in Pseudomonas aeruginosa PAO1 6/04-224 (ST-175) assessed as MIC for cefpodoxime antibacterial activity at 16 mg/L by broth microdilution method
[22] = test system: Pseudomonas aeruginosa PAO1; experiment: Inhibition of beta-lactamase activity in Pseudomonas aeruginosa PAO1 deltaDdeltsDh2deltaDh3 assessed as MIC for cefpodoxime antibacterial activity at 4 mg/L by broth microdilution method
[23] = test system: Pseudomonas aeruginosa PAO1; experiment: Inhibition of beta-lactamase activity in Pseudomonas aeruginosa PAO1 53/22-113 (ST-244) assessed as MIC for cefpodoxime antibacterial activity at 4 mg/L by broth microdilution method
[24] = test system: Pseudomonas aeruginosa PAO1; experiment: Inhibition of beta-lactamase activity in Pseudomonas aeruginosa PAO1 deltaC+pUCP-(PDC-1) assessed as MIC for cefpodoxime antibacterial activity at 16 mg/L by broth microdilution method
[25] = test system: Pseudomonas aeruginosa PAO1; experiment: Inhibition of beta-lactamase activity in Pseudomonas aeruginosa PAO1 PAHUAC-27(ST-22) assessed as MIC for cefpodoxime antibacterial activity at 4 mg/L by broth microdilution method
[26] = test system: Pseudomonas aeruginosa PAO1; experiment: Inhibition of beta-lactamase activity in Pseudomonas aeruginosa PAO1 deltadacBdeltaampD assessed as MIC for cefpodoxime antibacterial activity at 4 mg/L by broth microdilution method
[27] = test system: Pseudomonas aeruginosa PAO1; experiment: Inhibition of beta-lactamase activity in Pseudomonas aeruginosa PAO1 deltaampD assessed as MIC for cefpodoxime antibacterial activity at 4 mg/L by broth microdilution method
[28] = test system: Pseudomonas aeruginosa PAO1; experiment: Inhibition beta lactamase PDC-1 in Pseudomonas aeruginosa PAO1 assessed as maximum rate of inactivation using nitrocefin as substrate measured by 96 well microtitre plate
Pseudomonas aeruginosa = experiment: Inhibition of beta lactamase PDC-1 in Pseudomonas aeruginosa PAO1 for 30 min using MALDI TOF-MS analysis
[29] = test system: Pseudomonas aeruginosa PAO1; experiment: Inhibition of beta-lactamase activity in Pseudomonas aeruginosa PAO1 PAHUAC-14 (ST-966) assessed as MIC for cefpodoxime antibacterial activity at 4 mg/L by broth microdilution method
[30] = test system: Pseudomonas aeruginosa PAO1; experiment: Inhibition of beta-lactamase activity in Pseudomonas aeruginosa PAO1 13/09-018 (ST-175) assessed as MIC for cefpodoxime antibacterial activity at 4 mg/L by broth microdilution method
[31] = test system: Pseudomonas aeruginosa PAO1; experiment: Inhibition of beta-lactamase activity in Pseudomonas aeruginosa PAO1 6/04-224 (ST-175) assessed as MIC for cefpodoxime antibacterial activity at 4 mg/L by broth microdilution method
[32] = test system: Pseudomonas aeruginosa PAO1; experiment: Inhibition of beta-lactamase activity in Pseudomonas aeruginosa PAO1 assessed as MIC for cefpodoxime antibacterial activity at 16 mg/L by broth microdilution method
[33] = test system: Pseudomonas aeruginosa PAO1; experiment: Inhibition of beta-lactamase activity in Pseudomonas aeruginosa PAO1 23/14-053 (ST-309) assessed as MIC for cefpodoxime antibacterial activity at 16 mg/L by broth microdilution method
[34] = test system: Pseudomonas aeruginosa PAO1; experiment: Inhibition of beta-lactamase activity in Pseudomonas aeruginosa PAO1 17/14-017 (ST-235) assessed as MIC for cefpodoxime antibacterial activity at 16 mg/L by broth microdilution method
[35] = test system: Pseudomonas aeruginosa PAO1; experiment: Inhibition of beta-lactamase activity in Pseudomonas aeruginosa PAO1 36/14-210 (ST-235) assessed as MIC for cefpodoxime antibacterial activity at 16 mg/L by broth microdilution method
[36] = test system: Pseudomonas aeruginosa PAO1; experiment: Inhibition of beta-lactamase activity in Pseudomonas aeruginosa PAO1 36/14-210 (ST-235) assessed as MIC for cefpodoxime antibacterial activity at 4 mg/L by broth microdilution method
[37] = test system: Pseudomonas aeruginosa PAO1; experiment: Inhibition of beta-lactamase activity in Pseudomonas aeruginosa PAO1 deltaC+pUCP-(PDC-5) assessed as MIC for cefpodoxime antibacterial activity at 16 mg/L by broth microdilution method
[38] = test system: Pseudomonas aeruginosa PAO1; experiment: Inhibition of beta-lactamase activity in Pseudomonas aeruginosa PAO1 assessed as MIC for cefpodoxime antibacterial activity at 4 mg/L by broth microdilution method
[39] = test system: Pseudomonas aeruginosa PAO1; experiment: Inhibition of beta-lactamase activity in Pseudomonas aeruginosa PAO1 deltaC assessed as MIC for cefpodoxime antibacterial activity at 16 mg/L by broth microdilution method
[40] = test system: Pseudomonas aeruginosa PAO1; experiment: Inhibition of beta-lactamase activity in Pseudomonas aeruginosa PAO1 deltadacBdeltapbpGdeltadacC assessed as MIC for cefpodoxime antibacterial activity at 4 mg/L by broth microdilution method
[41] = test system: Pseudomonas aeruginosa PAO1; experiment: Inhibition of beta-lactamase activity in Pseudomonas aeruginosa PAO1 PAHUAC-27(ST-22) assessed as MIC for cefpodoxime antibacterial activity at 16 mg/L by broth microdilution method
[42] = Inhibition beta lactamase PDC-1 in Pseudomonas aeruginosa PAO1 assessed as apparent inhibition constant using nitrocefin as substrate measured by 96 well microtitre plate; conditions: read-out: Ki(app)
[43] = test system: Pseudomonas aeruginosa PAO1; experiment: Inhibition of beta-lactamase activity in Pseudomonas aeruginosa PAO1 deltaC+pUCP-(PDC-1) assessed as MIC for cefpodoxime antibacterial activity at 4 mg/L by broth microdilution method
[44] = test system: Pseudomonas aeruginosa PAO1; experiment: Inhibition beta lactamase PDC-1 in Pseudomonas aeruginosa PAO1 assessed as deacylation off-rate using nitrocefin as substrate at 30 mins measured by 96 well microtitre plate

Compound `C[C@]1(Cn2ccnn2)[C@H](C(=O)O)N2C(=O)C[C@H]2S1(=O)=O` [TAZOBACTAM] has an IC50 [1] of 844 nM.

With `CC1(C)[C@H](C(=O)O)N2C(=O)C[C@H]2S1(=O)=O` [SULBACTAM] the IC50 [1] was 4370 nM.

With `C[C@]1(COC(=O)Cc2ccc(O)c(O)c2)[C@H](C(=O)O)N2C(=O)/C(=C/c3cc(Br)ccn3)[C@H]2S1(=O)=O` the MIC [2] was 0.5 µg/mL (≈ 0.881 µM), the K [3] was 20.9 10^5/M/s and the MIC [4] was 8 µg/mL (≈ 14.1 µM). It also gave an MIC [5] of 2 µg/mL (≈ 3.53 µM), an MIC [6] of 1 µg/mL (≈ 1.76 µM) and an MIC [7] of 2 µg/mL (≈ 3.53 µM). The MIC [8] was 1 µg/mL (≈ 1.76 µM), the T1/2 [9] was 1.75 h and the MIC [10] was 0.5 µg/mL (≈ 0.881 µM). It also gave an MIC [11] of 0.5 µg/mL (≈ 0.881 µM), an MIC [12] of 1 µg/mL (≈ 1.76 µM) and an MIC [13] of 1 µg/mL (≈ 1.76 µM). The MIC [14] was 1 µg/mL (≈ 1.76 µM), the inhibition [15] was “inactive” and the MIC [16] was 4 µg/mL (≈ 7.05 µM). The k2/K inactivation efficiency [17] was 6.2 M⁻¹ s⁻¹, the MIC [18] was 2 µg/mL (≈ 3.53 µM) and the MIC [19] was 2 µg/mL (≈ 3.53 µM). It also gave an MIC [20] of 1 µg/mL (≈ 1.76 µM), an MIC [21] of 8 µg/mL (≈ 14.1 µM) and an MIC [22] of 1 µg/mL (≈ 1.76 µM). For the same compound, the MIC [23] was 4 µg/mL (≈ 7.05 µM), the MIC [24] was 1 µg/mL (≈ 1.76 µM) and the MIC [25] was 1 µg/mL (≈ 1.76 µM). For the same compound, the MIC [26] was 4 µg/mL (≈ 7.05 µM), the IC50 [1] was 0.9 nM and the MIC [27] was 1 µg/mL (≈ 1.76 µM). For the same compound, the Kinact [28] was 0.032 s⁻¹, the inhibition (Pseudomonas aeruginosa) was “inactive” and the MIC [29] was 4 µg/mL (≈ 7.05 µM). For the same compound, the MIC [30] was 2 µg/mL (≈ 3.53 µM), the MIC [31] was 8 µg/mL (≈ 14.1 µM) and the MIC [32] was 1 µg/mL (≈ 1.76 µM). It also gave an MIC [33] of 2 µg/mL (≈ 3.53 µM), an MIC [34] of 2 µg/mL (≈ 3.53 µM) and an MIC [35] of 8 µg/mL (≈ 14.1 µM). The MIC [36] was 16 µg/mL (≈ 28.2 µM), the MIC [37] was 1 µg/mL (≈ 1.76 µM) and the MIC [38] was 1 µg/mL (≈ 1.76 µM). The MIC [39] was 1 µg/mL (≈ 1.76 µM), the MIC [40] was 1 µg/mL (≈ 1.76 µM) and the MIC [41] was 1 µg/mL (≈ 1.76 µM). The Ki [42] was 14 nM, the MIC [43] was 1 µg/mL (≈ 1.76 µM) and the K [44] was 7 10^-2/min.

For `O=C(O)[C@H]1/C(=C/CO)O[C@@H]2CC(=O)N21` [CLAVULANIC ACID], the IC50 [1] was greater than 200000 nM.

— ChEMBL document CHEMBL5030517, “6-Halopyridylmethylidene Penicillin-Based Sulfones Efficiently Inactivate the Natural Resistance of Pseudomonas aeruginosa to β-Lactam Antibiotics” (J Med Chem, 2021)
